Measurements published in ChEMBL document CHEMBL1154703, “Poly-N-methylated amyloid beta-peptide (Abeta) C-terminal fragments reduce Abeta toxicity in vitro and in Drosophila melanogaster” (J Med Chem, 2009).
Calls of active or inactive are those of the source. The rule behind the calls is not given here. Non-standard residues stand in square brackets, D forms with d. Residues, ends and D or L forms follow the SMILES beside them. Met(O2) = CS(=O)(=O)CC[C@H](N)C(=O)O; NMeI = CC[C@H](C)[C@H](NC)C(=O)O; NMeL = CN[C@@H](CC(C)C)C(=O)O; NMeV = CN[C@H](C(=O)O)C(C)C; Sar = CNCC(=O)O

Columns and labels:
[1] = Inhibition of fibril formation of Abeta (1-40) assessed as fibril levels at 1:5 molar ratio of Abeta and ligand after 72 hrs by transmission electron microscopy relative to untreated control; design: scale not given: the % may be the effect or the level left
[2] = Reduction of beta-sheet formation of Abeta (1-42) at 100 uM during 3 hrs incubation by CD spectroscopy
[3] = Reduction of beta-sheet formation of Abeta (1-40) at 100 uM during 4 to 5 hrs incubation by CD spectroscopy
[4] = Inhibition of Abeta (1-40) assessed as blockade of amyloid-like aggregates at 100 uM by Congo red binding assay
[5] = Inhibition of Abeta (1-42) assessed as blockade of amyloid-like aggregates at 100 uM by Congo red binding assay
[6] = Inhibition of fibril formation of Abeta (1-40) assessed as fibril levels at 1:10 molar ratio of Abeta and ligand after 72 hrs by transmission electron microscopy relative to untreated control; design: scale not given: the % may be the effect or the level left
[7] = system: PC-12; test: Cytoprotection against Abeta (1-42)-induced toxicity in rat PC12 cells at 10 uM after 4 hrs by MTT assay; assay type: functional, cell-based
[8] = Effect on of Abeta (1-40) assessed as structure content at 5 hrs by CD spectroscopy
[9] = Reduction of beta-sheet formation of Abeta (1-40) at 1:1 molar ratio of Abeta and ligand during 5 hrs incubation by CD spectroscopy
[10] = Reduction of beta-sheet formation of Abeta (1-40) at 100 uM during 5 hrs incubation by CD spectroscopy
[11] = Reduction of beta-sheet formation of Abeta (1-42) at 100 uM during 4 hrs incubation by CD spectroscopy
[12] = Reduction of beta-sheet formation of Abeta (1-40) at 1:1 molar ratio of Abeta and ligand during 4 hrs incubation by CD spectroscopy
[13] = Effect on of Abeta (1-40) assessed as unordered structure content after 5 hrs by CD spectroscopy
[14] = Effect on of Abeta (1-42) assessed as unordered structure content after 5 hrs by CD spectroscopy
[15] = Inhibition of fibril formation of Abeta (1-40) assessed as change in fibril morphology at 100 uM by atomic force microscopy relative to untreated control
[16] = Inhibition of fibril formation of Abeta (1-40) assessed as change in fibril levels at 100 uM by atomic force microscopy relative to untreated control
[17] = system: Drosophila melanogaster; test: Prolongation of life span in transgenic Drosophila melanogaster expressing human Abeta (1-42) at 300 uM dosed from embryonic stage and throughout adult life; assay type: functional, organism-based
[18] = system: Drosophila melanogaster; test: Effect on life span in wild type Drosophila melanogaster at 300 uM dosed from embryonic stage and throughout adult life; assay type: functional, organism-based
[19] = system: Drosophila melanogaster; test: Improvement in locomotor activity in transgenic Drosophila melanogaster expressing human Abeta (1-42) at 300 uM dosed from embryonic stage and throughout adult life by climbing assay; assay type: functional, organism-based
[20] = Inhibition of fibril formation of Abeta (1-40) assessed as fibril levels at 1:1 molar ratio of Abeta and ligand after 72 hrs by transmission electron microscopy relative to untreated control; design: scale not given: the % may be the effect or the level left

Activity [1] | Activity [2] | Activity [3] | Activity [4] | Activity [5] | Activity [6] | Activity [8] | SMILES | Activity [7] | further results
– | Active | Active | inactive | inactive | 75% | – | CC[C@H](C)[C@H](NC(C)=O)C(=O)N(C)CC(=O)N[C@@H](CC(C)C)C(=O)N[C@@H](CCSC)C(=O)N[C@H](C(=O)N(C)CC(N)=O)C(C)C (Ac-I[Sar]LMV[Sar]-NH2) | Active | –
– | Active | Active | inactive | inactive | 50% | 25% | CC[C@H](C)[C@@H](C(=O)NCC(=O)N(C)[C@@H](CC(C)C)C(=O)N[C@@H](CCSC)C(=O)N(C)[C@H](C(=O)NCC(N)=O)C(C)C)N(C)C(C)=O (Ac-[NMeI]G[NMeL]M[NMeV]G-NH2) | Active | Activity [9]: inactive
0% | – | – | Active | Active | 0% | 25% | CC[C@H](C)[C@@H](C(=O)N(C)CC(=O)N(C)[C@@H](CC(C)C)C(=O)N[C@@H](CCSC)C(=O)N(C)[C@H](C(=O)N(C)CC(N)=O)C(C)C)N(C)C(C)=O (Ac-[NMeI][Sar][NMeL]M[NMeV][Sar]-NH2) | Active | Activity [10]: Active; Activity [11]: Active; Activity [12]: Active; Activity [13]: 55%; Activity [14]: > 50%; Activity [15]: Active; Activity [16]: Active; Activity [17]: Active; Activity [18]: inactive; Activity [19]: Active; Activity [20]: 50%

Second part, the compound before the results:

SMILES | Activity [1] | Activity [2] | Activity [3] | Activity [4] | Activity [5] | Activity [6] | Activity [8] | Activity [7] | further results
CC(=O)N(C)[C@@H](C)C(=O)N(C)[C@@H](C)C(=O)N(C)[C@@H](C)C(=O)N(C)[C@@H](C)C(=O)N(C)[C@@H](C)C(N)=O | 75% | – | – | – | – | – | – | – | –
CC[C@H](C)[C@H](NC(C)=O)C(=O)NCC(=O)N[C@@H](CC(C)C)C(=O)N[C@@H](CCSC)C(=O)N[C@H](C(=O)NCC(N)=O)C(C)C (Ac-IGLMVG-NH2) | – | Active | Active | inactive | inactive | 75% | 25% | inactive | –
CC[C@H](C)[C@@H](C(=O)N(C)CC(=O)N(C)[C@@H](CC(C)C)C(=O)N[C@@H](CCS(C)(=O)=O)C(=O)N(C)[C@H](C(=O)N(C)CC(N)=O)C(C)C)N(C)C(C)=O (Ac-[NMeI][Sar][NMeL][Met(O2)][NMeV][Sar]-NH2) | 50% | – | – | – | – | – | – | – | –
